From paper PMC4786809, “Determination of cyanidin 3-glucoside in rat brain, liver and kidneys by UPLC/MS-MS and its application to a short-term pharmacokinetic study” (Scientific Reports, 2016)

Legend:
Assay type in all cases: in vivo, Wistar rats
[1] = Plasma concentrations and pharmacokinetics after intravenous bolus of C3G (NCA and two-compartment model); settings: male, Wistar, rat, iv, plasma
From the text: (§1) Twenty-two male Wistar rats (Rattus Norvegicus, Harlan Italy S.r.l.), of same age (15 weeks), 293–390 g of body weight, were used. The rats were randomly divided into 5 groups, according to the time that elapsed after intravenous administration of the test compound, and one control group. Each time point was represented by four biological replicates. All animals were allowed to acclimate to the animal facility of the University of Trieste for at least 2 week before studies were initiated. The experimental design was vetted and approved by the bioethical committee of the University of Trieste (internal code 140PAS14), according to the provisions of the European Community Council Directive 2010/63/EU[39]. The methods were carried out in accordance with the approved guidelines. The animals (n = 22) were maintained in cages in a room at 23 ± 2 °C, 50–60% humidity with a 12-hour light-dark cycle. The night before the experiment, food was withdrawn from the cages but water was given ad libitum. On the day of the experiment, the rats were anesthetized with intra-peritoneal administration of tiletamine/zolazepam (1:1, 25 mg/kg body weight) and xylazine (10 mg/kg body weight). During anaesthesia (10 min in all cases), the heart and ventilation rate were monitored. The rats were placed on their backs, with the ventral side up and with the legs spread separately on a thermo-isolated support. The penis was extruded by sliding the prepuce downwards. The dorsal penis vein was then seen along both sides of the penis and exactly 10 min after anaesthesia 0.2 mL PBS without (control group) or with (treated group) 668 nmol cyanidin 3-glucoside (C3G) in PBS was injected using a 24-G hypodermic needle. Then the injection site was pressed with a swab for a few seconds, and the glans was encouraged to retract to prevent further bleeding. One min before sacrificing the rats, sodium heparin (0.1 ml, 500 IU) was injected again into the dorsal penis vein, exposed in the same way. […] Blood draining and excision of the organs were carried out according to the literature. In detail, blood was collected from the neck of rats hold upside down, immediately after their decapitation, which happened at the time points sharp. Exsanguination took 5 seconds; laparotomy and excision of the liver and the kidneys took 5 more seconds. The post-decapitation procedures were standardised. Urine was collected through the urinary bladder with a syringe before decapitation. Kidneys, liver and brain were washed with mQ water, immediately frozen in liquid nitrogen and stored at −80 °C.
(§2) Immediately after sampling, 5 mL of blood were transferred into ice-cold (−20 °C), deoxygenated aqueous 95% methanol in a ratio 1:9 (v/v). The urine was weighted and transferred into ice-cold, deoxygenated aqueous 95% methanol at a ratio of 1:9 (w/v). Frozen kidneys, liver and brain were grounded under cryogenic conditions (−196 °C) to 5 μm particles in a CryoMill (Retsch, Germany), using a single 25 mm i. d. steel ball (30 seconds, 25/sec frequency). The pulverized tissue was rapidly transferred (without thawing) into ice-cold, deoxygenated aqueous 95% methanol at a ratio of 1:9 (w/v). Cinnamic acid-d5, as internal standard, was dissolved in the aqueous methanol at concentration of 0.1 mg/L for the monitoring of the extraction protocol in biofluids and tissues.
(§3) All samples were extracted with an orbital shaker for 10 min at room temperature. The methanol extracts were then centrifuged for 5 min at 3600 rpm at 4 °C, decanted under a stream of nitrogen in 50 mL dark glass vessels and stored at −80 °C. Clean-up of extracted samples in methanol was performed by solid phase extraction (SPE), as previously described. Briefly, 5 mL of extracted samples were evaporated on a rotary evaporator and reconstituted in 10 mL of acidified water. Anthocyanins were extracted by solid-phase adsorption onto a hydrophobic matrix (Sep-Pak C18, 0.35 g, Waters, Milford, MA). […]

[2] = Liver concentrations and tissue pharmacokinetics after intravenous C3G
From the text: as §1, §2, §3

[3] = Kidney concentrations and tissue pharmacokinetics after intravenous C3G
From the text: as §1, §2, §3

[4] = Brain concentrations and tissue pharmacokinetics after intravenous C3G
From the text: as §1, §2, §3

[5] = Urinary excretion after intravenous C3G
From the text: as §1, §2, §3

[6] = 0.25 min after i.v. 668 nmol C3G, mean ± SEM n=4
[7] = 0.25–20 min after i.v. 668 nmol C3G

## COc1cc(-c2[o+]c3cc(O)cc(O)c3cc2O[C@@H]2O[C@H](CO)[C@@H](O)[C@H](O)[C@H]2O)ccc1O [PN3G, Peonidin-3-O-β-glucoside]
[1]; i.v. 668 nmol C3G, read-out: AUC0–20 (converted)
  AUC0-t: 2.91 nM·h
[1]; 668 nmol, i.v. 668 nmol C3G, read-out: Half life
  half-life: 8.16 min
[1]; [6]
  concentration at 0.25 min: 33.7 ± 5.51 nM
[1]; 2 min after i.v. 668 nmol C3G, mean ± SEM n=4
  concentration at 2 min: 13.1 ± 2.35 nM
[1]; 5 min after i.v. 668 nmol C3G, mean ± SEM n=4
  concentration at 5 min: 12.3 ± 1.37 nM
[1]; 15 min after i.v. 668 nmol C3G, mean ± SEM n=4
  concentration at 15 min: 3.73 ± 0.94 nM
[1]; 20 min after i.v. 668 nmol C3G, mean ± SEM n=4
  concentration at 20 min: 3.4 ± 0.22 nM
[2]; [7]
  Amounts found in liver (range over sampling times): 100.84 to 539.38 pmol/g
[2]; [6]
  Mean concentration in liver: 539.38 ± 71.33 pmol/g
[2]; 2 min after i.v. 668 nmol C3G
  Mean concentration in liver: 317.61 ± 35.86 pmol/g
[2]; 5 min after i.v. 668 nmol C3G
  Mean concentration in liver: 364.74 ± 44.85 pmol/g
[2]; 15 min after i.v. 668 nmol C3G
  Mean concentration in liver: 216.10 ± 36.06 pmol/g
[2]; 20 min after i.v. 668 nmol C3G
  Mean concentration in liver: 100.84 ± 6.33 pmol/g
[2]; liver
  MTTL (Mean Transit Time in the liver): 3.93 min
[2]; liver, i.v. 668 nmol C3G
  AUC0-t: 5610.12 pmol·min/g
[2]; male, Wistar, rat, intravenous, 668 nmol, liver vs plasma, read-out: AUC in liver relative to plasma
  Kp: 32.1
[2]; male, Wistar, rat, liver, iv, 668 nmol, read-out: Half-life
  half-life: 9.99 min
[3]; [6]
  Mean concentration in kidneys: 1.99 ± 0.55 nmol/g
[3]; 2 min after i.v. 668 nmol C3G
  Mean concentration in kidneys: 1.56 ± 0.18 nmol/g
[3]; 5 min after i.v. 668 nmol C3G
  Mean concentration in kidneys: 0.85 ± 0.08 nmol/g
[3]; 15 min after i.v. 668 nmol C3G
  Mean concentration in kidneys: 0.89 ± 0.22 nmol/g
[3]; 20 min after i.v. 668 nmol C3G
  Mean concentration in kidneys: 0.90 ± 0.14 nmol/g
[3]; kidneys
  MTTK (Mean Transit time in kidneys): 23.11 min
[3]; kidneys, i.v. 668 nmol C3G
  AUC0-t: 20.36 nmol·min/g
[3]; male, Wistar, rat, kidney, intravenous, 668 nmol, kidneys vs plasma, read-out: AUC in kidneys relative to plasma
  Kp: 116
[3]; male, Wistar, rat, kidney, iv, 668 nmol, kidneys
  half-life: 20.8 min
[4]; [7]
  Amounts found in brain (range over sampling times): 0.37 to 2.07 pmol/g
[4]; 2 min after i.v. 668 nmol C3G
  Mean concentration in brain: 2.07 ± 1.18 pmol/g
[4]; 5 min after i.v. 668 nmol C3G
  Mean concentration in brain: 0.70 ± 0.30 pmol/g
[4]; 15 min after i.v. 668 nmol C3G
  Mean concentration in brain: 0.40 ± 0.38 pmol/g
[4]; 20 min after i.v. 668 nmol C3G
  Mean concentration in brain: 0.37 ± 0.13 pmol/g
[4]; brain
  MTTB (Mean Transit Time in the brain): 8.61 min
[4]; brain, i.v. 668 nmol C3G
  AUC0-t: 17.10 pmol·min/g
[4]; male, Wistar, rat, brain, iv, 668 nmol
  half-life: 15.6 min
[4]; male, Wistar, rat, intravenous, 668 nmol, brain vs plasma, read-out: AUC in brain as share of that in plasma
  Kp: 0.0978
[5]; 0.25 min after i.v. 668 nmol C3G
  Urine concentration: 0.01 ± 0.00 nmol/g
[5]; 2 min after i.v. 668 nmol C3G
  Urine concentration: 1.48 ± 0.41 nmol/g
[5]; 5 min after i.v. 668 nmol C3G
  Urine concentration: 6.54 ± 0.33 nmol/g
[5]; 15 min after i.v. 668 nmol C3G
  Urine concentration: 5.67 ± 2.24 nmol/g
[5]; 20 min after i.v. 668 nmol C3G
  Urine concentration: 5.16 ± 1.11 nmol/g
